Common to all, as to assay: DTP human tumour cell line panel, 48 h
The subject of experiment [1] is UACC-62 melanoma.
The test system of experiment [2] is SK-MEL-5 melanoma.
For experiment [3], the system named is CAKI-1 renal.
Experiment [4] relates to EKVX NSCLC.
Experiment [5] deals with ACHN renal.
Experiment [6] has as its system NCI-H460 lung.
Experiment [7] has as its system HCT-15 colon.
Experiment [8] relates to A498 renal.
Experiment [9] relates to PC-3 prostate.
In experiment [10] the test system is HS 578T breast.

The structures appear in SMILES notation.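 Values below derive from 48-hour exposures of cells grown in 96-well plates, with endpoints linearly interpolated between the two concentrations bracketing the appropriate inhibition level. Here, GI50 denotes the concentration required for 50% inhibition of growth. The concentration for full growth arrest is given as TGI.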

In general, TGI refers to the concentration at which net growth stops. Regarding `O=C(CCCC(=O)Nc1ccc(Cl)cc1Cl)CC(=O)c1ccc2ccccc2c1`, the total growth inhibition concentration (TGI) in experiment [1], in experiment [2], in [3], in experiment [4], in experiment [5] and in experiment [6] was greater than 100 µM each time. The compound further displayed a TGI in experiment [7] greater than 100 µM.

As for `CCCCCCCCOCC(COC(=O)CCCCCCC)OC(=O)CCCCCCC` (stereo unspecified), the TGI in [1], in [2], in [3], in experiment [8], in experiment [5] and in experiment [6] was greater than 100 µM in each case. The compound also had a total growth inhibition concentration (TGI) in experiment [7] greater than 100 µM.

On to `CC12OC(=O)C(C#N)C1(C)C1C(=O)CCCC12` (stereo unspecified), for which the concentration for total growth inhibition (TGI) in [1], in experiment [2], in experiment [4], in [5], in experiment [6] and in experiment [7] was greater than 100 µM each time.

On to `CCOC(=O)/C(=C/c1ccccn1)C(=O)c1ccccc1`, for which the TGI in [1] was 24 µM; in experiment [2], 28.6 µM; in [3] it was 27.9 µM; in experiment [4] it was 42.8 µM; in experiment [8], 43.1 µM; in [5], greater than 56.2 µM. The TGI was greater than 62.8 µM in [6] and 29.3 µM in experiment [7].

As to `Cc1ccccc1C(CCCO)C(=O)O` (stereo unspecified), the TGI in experiment [1], in experiment [2], in experiment [3], in experiment [4], in experiment [8] and in experiment [5] was greater than 100 µM each time. For the same compound, the TGI in [6] and in experiment [7] was greater than 100 µM each time.

Regarding `CCc1cccc(CC)c1NC(=O)/C(Cl)=C(/Cl)C(=O)O`, the TGI in experiment [1] was greater than 66.7 µM; in [2], greater than 100 µM; in experiment [3], 32.6 µM; in [4] it was greater than 68.5 µM; in experiment [8], greater than 100 µM; in [5], 47.6 µM. Besides, the total growth inhibition concentration (TGI) in experiment [6] is greater than 100 µM; in experiment [7] it was 37.3 µM.

As a reminder, the GI50 is the concentration that inhibits growth by half. As for `C(=Nc1nc(SCc2ccccc2)nc2[nH]ncc12)c1cccs1`, the GI50 in [1] was 25.4 µM; in experiment [2] it was 2.77 µM; in [9], 32.6 µM; in [3], 29.8 µM; in experiment [4], 34.5 µM; in [5], 43.6 µM. For the same compound, the GI50 was 33.2 µM in experiment [6] and 85.4 µM in [7]. For the same compound, the TGI in experiment [1] was 61.8 µM; in experiment [2] it was 19.8 µM; in experiment [9] it was greater than 100 µM; in [3] it was greater than 100 µM; in experiment [4], greater than 100 µM; in experiment [5] it was greater than 100 µM. For the same compound, the TGI in experiment [6] and in [7] was greater than 100 µM each time.

As for `NC1=NC(Cn2nc(-c3ccccc3)c3ccccc3c2=O)=NNC(=O)N1`, the TGI in experiment [1], in experiment [2], in experiment [3], in [8], in [5] and in [6] was greater than 100 µM throughout. Moreover, the TGI in experiment [7] is greater than 100 µM.

Turning to `Nc1nc(=S)c2c(ncn2CCO)[nH]1`, the concentration for total growth inhibition (TGI) in [1], in [2], in experiment [3], in experiment [4], in [8] and in [5] was greater than 100 µM throughout. Also, the TGI in [6] and in experiment [7] was greater than 100 µM each time.

For the compound `O=NN(CCCl)C(=O)NC1CCC(CC(=O)O)CC1` (stereo unspecified), the TGI in experiment [1], in [2], in experiment [3], in experiment [4], in [8] and in experiment [5] was greater than 100 µM in each case. Besides, the TGI in experiment [6] and in experiment [7] was greater than 100 µM throughout.

Take `CC(=O)Nc1ccc(C2CC(c3ccc([N+](=O)[O-])cc3)=Nc3ccccc3S2=O)cc1` (stereo unspecified): the TGI was 27.8 µM in [1]; 48.4 µM in [2]; 97.5 µM in experiment [4]; 51.8 µM in experiment [5]; 47.9 µM in experiment [6]; 50.2 µM in experiment [7].

On to `COc1ccc(-c2c(C3=NCCCN3)nnn2-c2ccccc2)cc1`, for which the TGI in experiment [1], in [2], in [3], in [4], in experiment [8] and in experiment [5] was greater than 100 µM in each case. The TGI in [6] and in [7] was greater than 100 µM in each case.

For `CCCC(=O)CC(C)C(=O)C(=O)NC12CC3CC(CC(C3)C1)C2` (stereo unspecified), the TGI in experiment [2], in experiment [3], in experiment [4], in experiment [5], in experiment [6] and in experiment [7] was greater than 100 µM in each case.

Regarding `COc1cc(/C=C/c2csnn2)cc(OC)c1OC`, the TGI in experiment [1], in experiment [2], in [3], in [4], in [5] and in [6] was greater than 100 µM throughout. The TGI in [7] was greater than 100 µM.

On to `C[C@H](C(=O)O)C(=O)NC(=O)N(Cc1ccccc1)N=O`, for which the TGI in experiment [1], in experiment [2], in [3], in [4], in experiment [8] and in experiment [5] was greater than 100 µM in each case. Besides, the TGI in [6] and in [7] was greater than 100 µM in each case.

In the case of `COC(=O)C1=C(C(=O)OC)C2(c3ccccc3)OC1(c1ccccc1)c1cc3ccccc3cc12`, the TGI in experiment [1] was determined as 4.26 µM; in experiment [2], 3.69 µM; in [3], 2.83 µM; in [4], 3.33 µM; in experiment [5] it was 3.07 µM; in experiment [6], 11.9 µM. In experiment [7], the concentration for total growth inhibition (TGI) was determined as 3.88 µM.

For the compound `OC(c1ccccc1Br)(c1ccccc1Br)C(F)(F)F`, the TGI is 57.7 µM in experiment [1]; greater than 100 µM in [3]; greater than 100 µM in [4]; 51.9 µM in [8]; 38.3 µM in experiment [5]; greater than 100 µM in [6]. This compound also displayed a concentration for total growth inhibition (TGI) in experiment [7] greater than 100 µM.

As for `COC(=O)C(C(=O)C(=O)Nc1c(Cl)cc([N+](=O)[O-])cc1Cl)c1csc(-n2nc(C3=CCCCC3)cc2-c2ccccc2)n1` (stereo unspecified), the TGI in [1] was greater than 100 µM; in experiment [3] it was greater than 100 µM; in [4], 94.7 µM; in [8], greater than 100 µM; in experiment [5] it was greater than 100 µM; in [6], greater than 100 µM. The compound also returned a TGI in experiment [7] greater than 100 µM.

For `O=C1N[C@@H]2CCCC[C@@H]2C12CCCCC2`, the concentration for total growth inhibition (TGI) in experiment [1], in experiment [4], in experiment [8], in [5] and in experiment [6] was greater than 100 µM each time.

In the case of `CCOC(=O)C1(C)CCC(C(C(=O)O)C(=O)O)CC1=O` (stereo unspecified), the TGI in experiment [1], in experiment [2], in experiment [3], in experiment [4], in experiment [8] and in [5] was greater than 100 µM each time. In addition, the TGI in [6] and in experiment [7] was greater than 100 µM in each case.

Regarding `COc1ccc2ccccc2c1C1=NC(C)(C)CO1`, the total growth inhibition concentration (TGI) in [1], in experiment [2], in experiment [3], in [4], in experiment [5] and in [6] was greater than 100 µM in each case. Besides, the TGI in experiment [7] was greater than 100 µM.

`CC(=O)[CH-]C(=O)c1ccccc1.[C-]#[O+].[C-]#[O+].[Ir]`: the GI50 in experiment [1] is greater than 100 µM; in [2], greater than 100 µM; in experiment [3], greater than 100 µM; in [4], greater than 100 µM; in experiment [6], greater than 10 µM; in experiment [7], greater than 100 µM. The TGI is greater than 100 µM in experiment [1]; greater than 100 µM in [2]; greater than 100 µM in experiment [3]; greater than 100 µM in [4]; greater than 10 µM in [6]; greater than 100 µM in experiment [7].

In the case of `COc1ccc2c(C(=O)O)cc3ccccc3c2c1OC`, the TGI in [1] stood at 32.5 µM; in [4] it was 40.8 µM; in experiment [8], 40.7 µM; in [5] it was 29.8 µM.

Regarding `COc1ccc(/C=C2\C(=O)N(NC(C)=O)c3ccccc32)cc1`, the TGI in [1], in experiment [2], in experiment [3], in experiment [4], in [8] and in experiment [5] was greater than 100 µM throughout. Also, the TGI in experiment [6] and in experiment [7] was greater than 100 µM in each case.

For the compound `Cc1ccc(NC(=O)c2cc(S(=O)(=O)Nc3nnc(-c4ccccc4)c(-c4ccccc4)n3)c(SCc3ccccc3)cc2Cl)cc1`, the GI50 in [1] was 16.3 µM; in experiment [2] it was 19.2 µM; in experiment [9] it was 18.2 µM; in experiment [3], 21.2 µM; in experiment [4], 18 µM; in [10] it was 25.4 µM. Further, the GI50 was 17 µM in experiment [5], 26.4 µM in [6] and 17.5 µM in experiment [7]. Further, the TGI in [1] was 31.2 µM; in experiment [2] it was 37.6 µM; in [9], 49.1 µM; in experiment [3], 40.7 µM; in experiment [4], 37.6 µM; in experiment [10], 57.4 µM. Besides, the values for the TGI in [5], in [6] and in [7] were 31.3 µM, greater than 100 µM and 39.1 µM, respectively.

Turning to `CC(=O)OCC(=O)[C@@]1(O)CC[C@H]2[C@@H]3C[C@H](C)C4=CC(=O)C=C[C@]4(C)[C@@]3(F)[C@@H](O)C[C@@]21C`, the TGI in experiment [1], in experiment [2], in experiment [3], in experiment [4], in experiment [5] and in [6] was greater than 100 µM in each case. In addition, the TGI in experiment [7] was greater than 100 µM.

Consider `O=C(NCCc1ccccc1)C1C(=O)C(=O)N(CCc2ccccc2)C1=O` (stereo unspecified), for which the TGI in [1], in experiment [3], in experiment [4], in [5] and in experiment [7] was greater than 100 µM each time.

In the case of `COc1cc(-c2nccc3[nH]c(-c4ccc5cc[nH]c5c4)nc23)cc(OC)c1OC`, the GI50 in [1], in experiment [2], in experiment [9], in experiment [3], in [10] and in [5] was less than 0.01 µM throughout. Moreover, the GI50 in experiment [6] and in experiment [7] was less than 0.01 µM each time. Further, the TGI in experiment [1] worked out at 2.57 µM; in experiment [2], 0.563 µM; in [9], 4.74 µM; in experiment [3], 11.2 µM; in experiment [10] it was 10.3 µM; in experiment [5], 3.02 µM. Further, the TGI was 1.04 µM in experiment [6] and 1.31 µM in experiment [7].

On to `c1ccc(C(c2ccccc2)c2ccccn2)cc1`, for which the TGI in experiment [1], in experiment [2], in [3], in experiment [4], in [8] and in [5] was greater than 100 µM in each case. In addition, the TGI in experiment [6] and in experiment [7] was greater than 100 µM in each case.

On to `O=C(c1ccccc1)[C@H]1Nc2ccc(Cl)cc2[C@H]2CCC[C@@H]12`, for which the concentration for total growth inhibition (TGI) is greater than 100 µM in experiment [1]; 23 µM in experiment [2]; greater than 100 µM in experiment [3]; 57.9 µM in [5]; 88 µM in experiment [6]; 98.3 µM in experiment [7].

For the compound `O=C1C2C3C=CC(C2C(=O)N1CO)C1C2C(=O)N(CO)C(=O)C2C31` (stereo unspecified), the TGI in [1] is greater than 100 µM; in experiment [2], greater than 100 µM; in [3] it was greater than 100 µM; in experiment [4], greater than 100 µM; in [8], greater than 100 µM; in [5] it was greater than 66.6 µM. The total growth inhibition concentration (TGI) in experiment [6] was greater than 54.5 µM; in experiment [7], greater than 62.9 µM.

Values taken from PubChem BioAssay (NCI).
